From US20250382261A1 (The Broad Institute, Inc., priority 2021, published 2025)
Read-outs that look alike come from different tables or passages of the source.

What was measured:
[1] = system: A. baumannii (ATCC 17978); assay: Checkerboard potentiation assay with novobiocin; format: cell-based; details: with novobiocin
Protocol: (§1) Bacterial strains and culture conditions. The following bacterial strains were used within this study; A. baumannii (ATCC 17978), K. pneumoniae (ATCC 43816), K. pneumoniae (ATCC 43816, expressing pGDP2:mcr-1), P. aeruginosa (PA01). Bacterial growth was in cation-adjusted Mueller-Hinton broth (MHB) at 37° C., and inoculum was prepared according to CLSI protocol (CLSI 2015).
(§2) Potentiation assays. Checkerboard analyses were conducted with each drug serially diluted at eight concentrations to create an 8×8 matrix. At least two biological replicates were done for each combination, and the means were used for FIC calculation. The FIC for each drug was calculated by dividing the concentration of the drug in the presence of codrug in a combination for a well showing <10% growth by the MIC for that drug alone. The FIC index (FICI) is the sum of the two FICs, with an FIC index≤0.5 deemed synergistic.

[2] = system: K. pneumoniae (ATCC 43816); assay: Checkerboard potentiation assay with novobiocin; format: cell-based
Protocol: as §1, §2
(§3) To probe the spectrum of activity of the present analogs beyond A. baumannii, their interactions with novobiocin were assessed against the high-priority Gram-negative pathogens Klebsiella pneumoniae and P. aeruginosa (FIG. 5).

[3] = system: P. aeruginosa (PA01); assay: Checkerboard potentiation assay with novobiocin; format: cell-based
Protocol: as §1, §2, §3

[4] = system: LPS from E. coli EH100; assay: BODIPY-Cadaverine LPS displacement assay; format: binding; details: for LPS Displacement (EC50, μg/mL): BODIPY-cadaverine displacement from E. coli EH100 LPS
Protocol: BODIPY-Cadaverine LPS displacement assay. The BODIPY-cadaverine LPS displacement assay was performed as previously described (Wood et al. 2004. Combinatorial Chemistry & High Throughput Screening, 7: 239-49; Klobucar et al. 2021. ACS Chemical Biology, 16: 929-42). A solution of BODIPY-cadaverine (2.25 μM) and LPS from E. coli EH100 (5.25 μM) in Tris-HCl buffer (50 mM, pH 7.4) was prepared. 0.5 μL of compound and 49.5 μL of the Tris-HCl buffer with BODIPY-cadaverine and LPS solution were added to a Corning nonbinding surface black 384-well polystyrene plate. Fluorescence intensity was measured immediately with an excitation wavelength of 580 nm and an emission wavelength of 620 nm. EC50 values were calculated using a three-parameter logistic curve in GraphPad Prism 9.

[5] = HEK293 cytotoxicity assay (Cell Titer Glo); format: cell-based; details: human
Protocol: Cytotoxicity Assays. HEK293 (ATCC CRL 1573) cells were left to adhere for 18 h at 7.5×10^3 cells per well in DMEM containing 10% FBS and 2 mM L-glutamine. Compound was added directly into the well. After 48 h of treatment Promega Cell Titer Glo 2.0® was added, shaken for 10 min, and luminescence read (Biotek Neo). AC50 values were calculated using a four-parameter logistic curve in GraphPad Prism 9.
Focusing on only the analogs that retained synergistic activity with novobiocin (FICI≤0.5), half-maximal activity (AC50) values were calculated against HEK293 cells using a CellTiter-Glo® based assay to approximate cell viability. […] Specifically, the FICI value for both P35 and P36 was 0.094 against A. baumannii, while their AC50 values were 235 μg/mL and 200 μg/mL, respectively.

[6] = system: A. baumannii ATCC 17978; assay: Systemic A. baumannii murine infection model; format: in vivo, mouse; details: for Animals rescued in combination with novobiocin: 10 mg/kg analog + 50 mg/kg novobiocin i.p. 2 h post-infection, endpoint 5 days
Protocol: Mouse infection models. Animal experiments were conducted according to guidelines set by the Canadian Council on Animal Care using protocols approved by the Animal Review Ethics Board at McMaster University under Animal Use Protocol #20-12-43. Before infection, mice were relocated at random from a housing cage to treatment or control cages. No animals were excluded from analyses, and blinding was considered unnecessary. Seven- to nine-week-old female C57BL/6 mice (Charles River) were infected intraperitoneally with ˜2×10^6 CFU of A. baumannii ATCC 17978, with 5% porcine mucin (Sigma-Aldrich). Infections were allowed to establish for 2 h, and treatments were administered intraperitoneally. For the survival study, the clinical endpoint was determined using a five-point body condition score analyzing weight loss, decrease in body temperature, respiratory distress, hampered mobility and hunched posture. Experimental endpoint was defined as five days post-infection for mice not reaching clinical endpoint. For CFU/mL enumeration, animals were infected as described above and euthanized 6 h post-infection, and blood was collected into sterile 2 ml heparinized tubes (BD Scientific) serially diluted in PBS and plated onto solid LB. Plates were incubated overnight at 37° C., and colonies were quantified to determine bacterial load.
This was directly compared to the activity of P35 and P36 in this model (all administered at 10 mg/kg) in combination with novobiocin (50 mg/kg).
For this experiment the same A. baumannii infection model was used, however, endpoint was defined as 6 h post-infection, at which point blood was collected for CFU/mL enumeration (FIG. 2b).

[7] = system: HepG2 cells; details: human, 72 h
[8] = system: A. baumannii ATCC 17978; details: murine systemic A. baumannii infection, Stokes et al. 2017; cited from earlier work
[9] = in vivo; details: female, C57BL/6, mouse, plasma, iv, 1 mg/kg
Protocol: (§4) Plasma samples were taken from 3 mice per time point (5, 15, 30 min; 1, 2, 4, 6 and 8 h post-dose). An aliquot of 2 μL sample was protein precipitated with 60 μL methanol, the mixture was vortex-mixed well and centrifuged at 13000 rpm for 10 min at 4° C. 2 μL supernatant was injected for LC-MS/MS analysis. The mean plasma concentration and the standard deviation from all 3 animals within each time point were calculated. PK parameters were calculated with a non-compartmental analysis. The mean plasma concentrations from all 3 mice at each time point were used in the calculations.

[10] = in vitro; details: human
[11] = system: human red blood cells; assay: Hemolysis in human blood; details: 100 μM, 45 min, 37° C.
[12] = Pharmacokinetic analysis after single intravenous dose
Protocol: as §4

[13] = HEK293T Cytotoxicity (IC50, μg/mL)

## N=C(N)c1ccc(OCCCCCOc2ccc(C(=N)N)cc2)cc1 [Pentamidine, pentamidine, reference compound]
[1]
  FICI AB: 0.25
[2]
  FICI KP: 0.375
[3]
  FICI PA: 0.75
[4]
  LPS Displacement (EC50, μg/mL): 231 µg/mL
[5]; HEK293 cells (ATCC CRL 1573), 48 h treatment, Cell Titer Glo, called AC50 in the text, read-out: HEK293T Cytotoxicity (IC50, μg/mL)
  IC50 at 48 h: 73 µg/mL
[6]; 10 mg/kg + 50 mg/kg novobiocin, 6 h post-infection
  Reduction in blood CFU/mL in combination with novobiocin: 2.08 log10
[6]
  Animals rescued in combination with novobiocin: 100%
[7]
  AC50: > 150000 nM
[8]
  Animals rescued in combination with novobiocin (previous work): 100%
[9]
  AUC(0-inf): 119 ng·h/mL
  AUC(0-t): 116 ng·h/mL
  C0: 1260 ng/mL
  MRT inf: 24.7 min
  MRT last: 13.7 min
  Vd: 3.45 L/kg
  clearance: 140 mL/min/kg
  half-life: 118 min
[10]; HepG2 viability / cell cycle arrest AC50, HepG2, 72 h incubation
  AC50 at 72 h: < 0.293 µM
[10]; Nuclear Size AC50 (μM)
  AC50 at 72 h: 2.28 µM
[10]; Phospholipidosis AC50 (μM)
  AC50 at 72 h: > 150 µM
[11]
  Hemolysis of human blood: Neither compound was hemolytic
[12]; female C57BL/6 mice, 1 mg/kg i.v. in water
  Adverse effects after single intravenous dose: no adverse effects
[12]; mouse, 1 mg/kg IV
  AUCExtra (%): 2.76%
  AUMCExtra (%): 45.8%
  Tlast: 4.00 h

## N=C(N)c1ccc(OCCC2CCCCC2CCOc2ccc(C(=N)N)cc2)cc1 (centres unmarked) [Analog P21]
[1]
  FICI AB: 0.094
[2]
  FICI KP: 0.046
[3]
  FICI PA: 1
[4]
  LPS Displacement (EC50, μg/mL): 13.08 µg/mL
[5]; [13]
  IC50 at 48 h: 19.2 µg/mL

## CCC(CC)(CCOc1ccc(C(=N)N)cc1)CCOc1ccc(C(=N)N)cc1 [Analog P07]
[1]
  FICI AB: 0.0625
[2]
  FICI KP: 0.156
[3]
  FICI PA: 1
[4]; BODIPY displacement EC50 relative to pentamidine
  Increase of LPS binding affinity compared to pentamidine: > 10 fold
[4]
  LPS Displacement (EC50, μg/mL): 19.04 µg/mL
[5]; [13]
  IC50 at 48 h: 31.2 µg/mL

## CC(C)(CCOc1ccc(C(=N)N)cc1)CCOc1ccc(C(=N)N)cc1 [Analog P06]
[1]
  FICI AB: 0.187
[2]
  FICI KP: 0.156
[3]
  FICI PA: 0.375
[4]
  LPS Displacement (EC50, μg/mL): 62.47 µg/mL
[5]; [13]
  IC50 at 48 h: 69.1 µg/mL

## N=C(N)c1ccc(OC2CCC(Oc3ccc(C(=N)N)cc3)CC2)cc1 (centres unmarked) [Analog P08]
[1]
  FICI AB: 0.375
[2]
  FICI KP: 0.25
[3]
  FICI PA: 2
[4]
  LPS Displacement (EC50, μg/mL): 288.7 µg/mL
[5]; [13]
  IC50 at 48 h: > 160 µg/mL

## CO[C@@H]1[C@@H](OC(N)=O)[C@@H](O)[C@H](Oc2ccc3c(O)c(NC(=O)c4ccc(O)c(CC=C(C)C)c4)c(=O)oc3c2C)OC1(C)C [novobiocin, reference compound]
[6]; alone, 6 h post-infection, compared to control-treated animals
  Impact on blood CFU/mL, treatment alone: no significant impact

## N=C(N)c1ccc(OCCCCCOc2ccc(C(=N)N)nc2)cn1 [Analog P16]
[1]
  FICI AB: 0.25
[2]
  FICI KP: 0.375
[3]
  FICI PA: 1
[4]
  LPS Displacement (EC50, μg/mL): 60.19 µg/mL
[5]; [13]
  IC50 at 48 h: 183 µg/mL

## N=C(N)c1ccc(OCCCCCOc2ccc(C(=N)N)cc2F)c(F)c1 [Analog P12]
[1]
  FICI AB: 0.187
[2]
  FICI KP: 0.187
[3]
  FICI PA: 0.5
[4]
  LPS Displacement (EC50, μg/mL): 63.21 µg/mL
[5]; [13]
  IC50 at 48 h: 95.5 µg/mL

## N=C(N)c1ccc(OCC2(COc3ccc(C(=N)N)cc3)CCCCC2)cc1 [Analog P31]
[1]
  FICI AB: 0.094
[2]
  FICI KP: 0.0937
[3]
  FICI PA: 0.187
[4]
  LPS Displacement (EC50, μg/mL): 43.82 µg/mL
[5]; [13]
  IC50 at 48 h: 73.5 µg/mL

## N=C(N)c1ccc(OCCC2(CCOc3ccc(C(=N)N)cc3)CCC(C(=O)O)CC2)cc1 (centres unmarked) [Analog P30]
[1]
  FICI AB: 0.625
[2]
  FICI KP: 1
[3]
  FICI PA: 2
[4]
  LPS Displacement (EC50, μg/mL): 119.4 µg/mL
[5]; [13]
  IC50 at 48 h: 1100 µg/mL

## N=C(N)c1ccc(OCCN(CCOc2ccc(C(=N)N)cc2)Cc2ccccc2)cc1 [Analog P36]
[1]
  FICI AB: 0.094
[3]
  FICI PA: 0.5
[4]
  LPS Displacement (EC50, μg/mL): 165.9 µg/mL
[5]; [13]
  IC50 at 48 h: 200 µg/mL
[6]
  Animals rescued in combination with novobiocin: 80%

## N=C(N)c1ccc(OCCC2(CCOc3ccc(C(=N)N)cc3)CCCC2)cc1 [Analog P02]
[1]
  FICI AB: 0.156
[2]
  FICI KP: 0.187
[3]
  FICI PA: 0.281
[4]
  LPS Displacement (EC50, μg/mL): 77.29 µg/mL
[5]; [13]
  IC50 at 48 h: 15.3 µg/mL
